Measured values reported in patent publication US7022524B1, “Increasing plant growth with luminol” (The Regents of the University of California, Office of …, priority 1998, dated 2006).

Assays:
[1] = system: R. meliloti 1021; assay: Production of compounds D and Y by bacterial cultures in supplemented medium; format: cell-based, Rhizobium meliloti; conditions: culture medium supplemented at final concentration of 50 micromolar
[2] = system: alfalfa seedlings; assay: Net photosynthesis measured as radioactive 14CO2 incorporation in alfalfa seedlings; format: in vivo, Medicago sativa L.
Description: Twenty hours after treating alfalfa roots with purified compound D, 25% to 30% increases in net photosynthesis was effected, as measured by radioactive ^14CO2 incorporation tests. Purified compound D was supplied at approximately 100 pM in solution surrounding roots of three day old alfalfa seedlings. Net photosynthesis was measured as radioactive ^14CO2 incorporation by exposing randomized treatments of all plants simultaneously for about 15 minutes to ^14CO2 in a single chamber with thorough mixing of the chamber atmosphere. Data points were means from two to four replicates, each of which contained approximately 400 seedlings.
The isotopic assay for measuring net photosynthesis with ^14CO2 is described in Sheikholeslam (1980) Botanical Gazette 141:48-52. Briefly, to measure net photosynthesis, intact seedling are placed in a clear plastic box with direct exposure to sunlight or artificial lights. Isotopically labeled ^14CO2 is generated in the plant chamber by injecting an acid solution through a rubber stopper in the wall of the box and into a beaker containing ^14C-bicarbonate. The ^14CO2 released by that chemical reaction is distributed throughout the box with a fan. After 15 minutes of photosynthesis in the presence of ^14CO2, plants are frozen in liquid nitrogen and separated into roots, stems and leaves. The amount of ^14CO2 is measured in the various plant parts with a scintillation counter after chemical digestion of the plant matter.

[3] = Stability to light and heat; format: physicochemical; conditions: e.g., 40° C.
[4] = Solubility and hydrophobicity; format: physicochemical; conditions: for solubility during purification: all solvents; for solubility: purified compounds, water, methanol; for hydrophobicity: removed from aqueous solution in C18 resin
[5] = system: alfalfa; assay: Plant growth (dry weight of shoots and roots) of alfalfa after root or seed treatment; format: in vivo, Medicago sativa L.
Description: In another experiment, treating alfalfa seedling roots with purified compound D at a presumed concentration of about 100 pM every 48 hours for 10 days increased the final shoot dry mass (as determined by weighing) 10% relative to untreated control plants.
Moapa 69′ alfalfa seeds for all experiments were soaked 30 min in 70% ethanol, rinsed with sterile water, treated 5 min in concentrated H2SO4, rinsed with sterile water, soaked 30 min in commercial bleach and then washed with sterile water. For respiration tests approximately 400 seeds (1 gram) were germinated on a 10×10-cm screen above a hydroponic nutrient solution, see Volpin (1998) Plant Physiol. 116:777-783. In some hydroponic experiments the nutrient solution was supplemented to contain ampicillin (125 mg/L) and rifampicin (10 mg/L). Plant growth experiments were done in sterile pots (10×10×10 cm) containing vermiculite. The pots were watered with the hydroponic nutrient solution (Volpin (1998) supra) supplemented to contain 1 mM NH4NO3 and various lumichrome treatments every second day. In all experiments, plants were grown under controlled conditions using a 12/12-hour day/night photoperiod and a 25/20° C. temperature regime with a photon flux density (400-700 nm) of 250 μmol/m^2-s.
Lumichrome effects on plant growth were tested by treating roots or seeds. Surface-sterilized seeds were soaked 2 hours in either 0 or 5 nM lumichrome. Then 50 seeds were planted in vermiculite in each pot. Plants germinating from untreated seeds received nutrient solution containing 0, 5 or 50 nM lumichrome. Plants developing from seeds soaked in 5 nM lumichrome were watered with lumichrome-free nutrient solution. Pots were covered initially with a clear, plastic wrap, which was removed after 6 days. Plants were harvested 12 days after germination, and roots and shoots were separated, dried, and weighed.

[6] = system: alfalfa (Medicago sativa L.) roots; assay: Root respiration (CO2 evolution / O2 uptake by gas chromatograph) of excised alfalfa roots after treating intact seedlings; format: in vivo
Description: Rhizobium meliloti 1021 (Rm1021) (Meade (1982) J. Bacteriol. 149:114-122) were grown to the early stationary phase in a defined minimal medium (as described in Vincent (1970) In “A Manual for the Practical Study of Root-Nodule Bacteria, Blackwell Scientific Publications, Oxford, UK). Bacteria were collected by centrifugation and washed three times with sterile water before roots were inoculated. UV irradiance for killing cells in some experiments was supplied as a 25 minute treatment with a transilluminator(model T1202, Sigma). The absence of living cells in UV-killed cultures and sterile, non-inoculated control treatments was verified by plating on tryptone yeast medium.
If respiration is to be measured, it is important that the plants be grown under sterile conditions for the respiration measurements (see, e.g., Guri, et al., U.S. Pat. No. 5,503,652, describing compositions and methods to prevent microbial contamination of plant tissue culture media). Seeds of alfalfa (Medicago sativa L. cv Moapa 69) were surface sterilized for 15 minutes in 70% ethanol, rinsed with water, and allowed to imbibe for four hours with aeration before germinating in a hydroponic system (as in Maxwell (1989) Plant Physiol. 91:842-847) containing nitrogen free nutrient solution (see DeJong (1981) Plant Physiol. 68:309-313). Each 400 mL plastic box contained one gram of seeds and produced about 400 seedlings after being maintained in a sterile manner for about three days with aeration at 25° C. under indirect sunlight supplemented with fluorescent lights. Plants used in these experiments consisted of cotyledons and roots with an occasional primary leaf.
Experiments used 5×10^7 colony-forming units (CFU) of bacteria per mL of plant nutrient solution unless otherwise noted. Bacteria were harvested from their growth medium, washed twice in sterile water, suspended in 1 mL of water and added to the plant nutrient solution of alfalfa seedlings 3 days after germination, when roots were approximately 4-cm long. Sterile water (1 mL) was added to the sterile non-inoculated controls. Plants were harvested to measure root respiration at various times, depending of the experiment. At harvest, roots were excised, blotted briefly on a paper towel, weighed, and enclosed in a 10-mL gas-tight test tube. Each replicate contained 1 gram fresh wt of roots from about 200 plants; every experiment had three or four replicates; and all experiments were repeated at least twice.
All assays were conducted for 30 minutes immediately after excision. Changes in CO2, and in some experiments O2, were measured at 45° C. with a thermistor detector on a Sigma 4 gas chromatograph equipped with a column (3.05 m×3.2 mm) containing Chromosorb 102 for CO2 and Molecular Sieve 5A for O2. Helium was used as the carrier gas at flow rates of 15 cm^3/min for O2 and 35 cm^3/min for CO2. The change in gas composition during the first 30 min after the roots were enclosed in the assay tubes (described above) was used to calculate respiration rates. Data were analyzed with standard statistical methods to determine SE or LSD0.05 values for comparisons of treatment effects by Student's t test or analysis of variance (see, e.g., Steel et al., (1960) Principles and Procedures of Statistics. McGraw-Hill, N.Y.).
Moapa 69′ alfalfa seeds for all experiments were soaked 30 min in 70% ethanol, rinsed with sterile water, treated 5 min in concentrated H2SO4, rinsed with sterile water, soaked 30 min in commercial bleach and then washed with sterile water. For respiration tests approximately 400 seeds (1 gram) were germinated on a 10×10-cm screen above a hydroponic nutrient solution, see Volpin (1998) Plant Physiol. 116:777-783. In some hydroponic experiments the nutrient solution was supplemented to contain ampicillin (125 mg/L) and rifampicin (10 mg/L). Plant growth experiments were done in sterile pots (10×10×10 cm) containing vermiculite. […]

[7] = about 100 pM to seedling roots every 48 hours for 10 days

With `CC(=O)c1c(O)cc(O)c(C(C)=O)c1O` [diacetylphloroglucinol, 2,4-diacetyl-1,3,5-benzenetriol] the “effect on the production of compound Y” value [1] was “no consistent effect” and the “increase in net photosynthesis in plants” value ([2]; applied to roots in nanomolar concentrations) was no more than 50%.

With `Cc1cc2nc3[nH]c(=O)[nH]c(=O)c3nc2cc1C` [lumichrome, 7,8,-dimethylalloxazine] the “stability to light and heat” value [3] was “degraded by light and heat”, the solubility during purification [4] was “Solubility problems” and the solubility [4] was “soluble in both water and methanol”. The hydrophobicity [4] was “moderately hydrophobic”, the “increase in plant growth” value ([5]; 5 nM applied to young alfalfa roots, after 12 days, P≦0.05) was 8% and the “change in root dry weight” value [5, 7] was “no increase in root dry weight”. The “increase in final shoot dry mass relative to untreated control plants” value [5, 7] was 10%, the “increase in plant growth” value ([5]; alfalfa seeds soaked in 5 nM before germination, 12 days, P≦0.01) was 18% and the “root mass relative to control” value ([5]; lumichrome-treated plants, 12 days) was “numerically, but not significantly, larger”. For the same molecule, the “increase in shoot dry weight relative to control shoots” value ([5]; root drench 5 nM, 12 days, P≦0.05) was 7%, the “increase in shoot dry weight relative to control shoots” value ([5]; root drench 50 nM, 12 days, P≦0.01) was 12% and the “increase in dry matter on a whole-plant basis” value ([5]; roots exposed or seeds immersed before germination, P≦0.05) was 8% to 18%. The “increase in shoot dry weight relative to control shoots” value ([5]; seed soaking 5 nM, 12 days, P≦0.01) was 18%, the “increase in net photosynthesis over untreated control” value ([2]; approximately 100 pM around roots of three day old seedlings, 20 hours after treating roots) was 25% to 30% and the “time to peak of 14CO2 incorporation” value ([2]; no more than 100 pM) was 5 to 10 h. The “increase in net photosynthesis above untreated controls” value ([2]; no more than 100 pM, 8 hour time point after treating roots) was 45% to 75%, the 14CO2 incorporation ([2]; no more than 100 pM, after approximately 20 hours) was “about 2.0 ^14CO2 cpm×10^5 per gram cotyledon” and the “14CO2 incorporation, peak” value ([2]; no more than 100 pM, peak after about 5 to 10 hours, negative control about 1.5) was 2.5 to 2.75 ^14CO2 cpm×10^5 per gram cotyledon. For the same molecule, the “increase in root respiration” value ([6]; 3 to 50 nM treatments of alfalfa roots, several experiments, P≦0.05) was 11% to 30%, the “increase in root respiration” value ([6]; alfalfa roots treated with 3 nM, within 48 hours, P≦0.05) was 21% and the “time for the (slower) increase in root respiration” value ([6]; in vivo) was “greater than 4 hours”. For the same molecule, the “increase in root respiration” value ([6]; intact root systems exposed 39 hours, 3 nM lumichrome or S. meliloti cells 10^7 cfu/ml, P≦0.05) was 21%.

With `CC(=O)c1c(O)cc(O)cc1O` [monoacetylphloroglucinol] the “effect on the production of compound Y” value [1] was “no consistent effect”.

For `Oc1cc(O)cc(O)c1` [phloroglucinol, reference compound], the “effect on the production of compound Y” value [1] was “no consistent effect”.

For `Cc1cc2nc3c(=O)[nH]c(=O)nc-3n(C[C@H](O)[C@H](O)[C@H](O)CO)c2cc1C` [riboflavin], the “stability to light and heat” value [3] was “degraded by light and heat”, the solubility during purification [4] was “only marginally better” and the solubility [4] was “soluble in both water and methanol”. The hydrophobicity [4] was “moderately hydrophobic”, the “enhancement of net photosynthesis” value ([2]; very low (e.g., picomolar) concentrations) was no more than 7% and the “increase in root respiration compared with lumichrome” value ([6]; 200 nM riboflavin, one test) was “approximately the same increase in root respiration as 30 nM lumichrome”. The “increase in root respiration” value ([6]; very low (e.g., picomolar) concentrations, various experiments) was 11% to 31%.
